According to the NIST ThermoML archive (doi:10.1021/je020189p):
Where “and” joins values, the source holds several entries; their conditions need not be identical. Equal values may be shown once. ± gives the expanded uncertainty stated by the source.

Conditions: Crystal

[I][Tb]([I])[I] [terbium triiodide]
Conditions	vapor or sublimation pressure
861 K	1.91e-05 ± 5.8e-06 kPa
871 K	2.82e-05 ± 8.5e-06 kPa
879 K	3.31e-05 ± 1e-05 kPa
883 K	4.27e-05 ± 1.3e-05 kPa
884 K	3.8e-05 ± 1.2e-05 kPa and 5.01e-05 ± 1.5e-05 kPa
885 K	5.01e-05 ± 1.5e-05 kPa
891 K	4.79e-05 ± 1.5e-05 kPa
892 K	6.17e-05 ± 1.9e-05 kPa
895 K	7.08e-05 ± 2.2e-05 kPa
897 K	6.61e-05 ± 2e-05 kPa and 5.75e-05 ± 1.8e-05 kPa
900 K	0.0001 ± 3e-05 kPa
902 K	9.12e-05 ± 2.8e-05 kPa
903 K	7.59e-05 ± 2.3e-05 kPa
907 K	0.000126 ± 3.9e-05 kPa
909 K	0.000115 ± 3.5e-05 kPa and 9.55e-05 ± 2.9e-05 kPa
911 K	0.000151 ± 4.5e-05 kPa
912 K	0.000132 ± 4e-05 kPa
913 K	0.000123 ± 3.8e-05 kPa
915 K	0.000115 ± 3.5e-05 kPa
917 K	0.000174 ± 5.2e-05 kPa
920 K	0.000141 ± 4.3e-05 kPa
921 K	0.0002 ± 6e-05 kPa
922 K	0.000186 ± 5.6e-05 kPa
926 K	0.000209 ± 6.3e-05 kPa
927 K	0.000182 ± 5.5e-05 kPa and 0.000251 ± 7.6e-05 kPa
928 K	0.000251 ± 7.5e-05 kPa
929 K	0.000229 ± 6.9e-05 kPa
930 K	0.00024 ± 7.2e-05 kPa
931 K	0.000209 ± 6.3e-05 kPa
935 K	0.00024 ± 7.4e-05 kPa
936 K	0.000339 ± 0.0001 kPa
937 K	0.000347 ± 0.00011 kPa
938 K	0.000316 ± 0.00011 kPa
939 K	0.000339 ± 0.00012 kPa
940 K	0.000339 ± 0.0001 kPa and 0.000282 ± 8.6e-05 kPa
942 K	0.000676 ± 0.0002 kPa
944 K	0.000447 ± 0.00014 kPa
945 K	0.000479 ± 0.00015 kPa
947 K	0.000407 ± 0.00012 kPa and 0.000363 ± 0.00011 kPa
948 K	0.000468 ± 0.00014 kPa and 0.000427 ± 0.00013 kPa
951 K	0.00055 ± 0.00018 kPa
952 K	0.001 ± 0.00031 kPa
953 K	0.000447 ± 0.00014 kPa and 0.000603 ± 0.00018 kPa
955 K	0.000955 ± 0.00029 kPa
958 K	0.000661 ± 0.0002 kPa and 0.000631 ± 0.00019 kPa
959 K	0.000692 ± 0.00021 kPa and 0.000741 ± 0.00022 kPa
961 K	0.000776 ± 0.00026 kPa
963 K	0.000661 ± 0.0002 kPa
964 K	0.00135 ± 0.00041 kPa
966 K	0.000891 ± 0.00027 kPa and 0.000955 ± 0.00029 kPa
967 K	0.000912 ± 0.00028 kPa and 0.000977 ± 0.0003 kPa
971 K	0.00105 ± 0.00034 kPa and 0.00166 ± 0.00051 kPa and 0.001 ± 0.00032 kPa
972 K	0.00191 ± 0.00059 kPa and 0.0012 ± 0.00038 kPa
973 K	0.00117 ± 0.00035 kPa and 0.00115 ± 0.00035 kPa and 0.000955 ± 0.00029 kPa
975 K	0.00186 ± 0.00056 kPa
976 K	0.00135 ± 0.00041 kPa
977 K	0.00141 ± 0.00043 kPa
979 K	0.00141 ± 0.00042 kPa
980 K	0.00148 ± 0.00044 kPa and 0.00138 ± 0.00041 kPa
981 K	0.00123 ± 0.00037 kPa
983 K	0.00151 ± 0.00046 kPa and 0.0024 ± 0.00072 kPa
985 K	0.00186 ± 0.0006 kPa
986 K	0.00182 ± 0.00058 kPa and 0.0017 ± 0.00055 kPa
987 K	0.00288 ± 0.00089 kPa and 0.00191 ± 0.0006 kPa
988 K	0.00288 ± 0.00087 kPa and 0.00178 ± 0.00054 kPa and 0.00155 ± 0.00047 kPa
990 K	0.00288 ± 0.00087 kPa
992 K	0.00234 ± 0.00071 kPa
993 K	0.00219 ± 0.00067 kPa
994 K	0.00229 ± 0.0007 kPa and 0.00182 ± 0.00056 kPa
995 K	0.0024 ± 0.00076 kPa and 0.00389 ± 0.0012 kPa
998 K	0.00282 ± 0.00085 kPa [middle of 4 runs]
1001 K	0.00282 ± 0.00086 kPa
1002 K	0.0024 ± 0.00073 kPa
1003 K	0.00288 ± 0.00087 kPa and 0.00501 ± 0.0015 kPa
1004 K	0.00479 ± 0.0014 kPa and 0.00339 ± 0.001 kPa
1005 K	0.00479 ± 0.0014 kPa
1006 K	0.00309 ± 0.00093 kPa
1008 K	0.00339 ± 0.001 kPa and 0.00389 ± 0.0012 kPa
1009 K	0.00282 ± 0.00096 kPa and 0.0038 ± 0.0012 kPa
1012 K	0.00575 ± 0.0017 kPa and 0.00676 ± 0.002 kPa
1013 K	0.00447 ± 0.0015 kPa
1015 K	0.00437 ± 0.0013 kPa
1016 K	0.00708 ± 0.0022 kPa
1017 K	0.00525 ± 0.0017 kPa
1018 K	0.00501 ± 0.0015 kPa
1019 K	0.00759 ± 0.0023 kPa
1020 K	0.00912 ± 0.0027 kPa
1021 K	0.00617 ± 0.0019 kPa
1022 K	0.0055 ± 0.0016 kPa
1026 K	0.00661 ± 0.002 kPa
1027 K	0.00977 ± 0.0029 kPa
1028 K	0.00955 ± 0.0029 kPa
1029 K	0.00676 ± 0.002 kPa and 0.0117 ± 0.0035 kPa and 0.00692 ± 0.0021 kPa
1033 K	0.00813 ± 0.0026 kPa
1036 K	0.0129 ± 0.0041 kPa
1037 K	0.00891 ± 0.0028 kPa and 0.0132 ± 0.004 kPa
1039 K	0.0162 ± 0.0049 kPa
1043 K	0.0162 ± 0.0049 kPa
1044 K	0.0115 ± 0.0035 kPa
1049 K	0.0195 ± 0.0059 kPa and 0.0204 ± 0.0062 kPa and 0.0224 ± 0.0068 kPa
1050 K	0.0135 ± 0.0042 kPa
1057 K	0.0245 ± 0.0074 kPa
1058 K	0.0174 ± 0.0052 kPa
1059 K	0.0263 ± 0.0079 kPa and 0.0309 ± 0.0093 kPa
1064 K	0.0209 ± 0.0063 kPa and 0.0309 ± 0.0093 kPa
1066 K	0.0316 ± 0.0095 kPa and 0.038 ± 0.011 kPa
1070 K	0.0263 ± 0.0079 kPa
1072 K	0.0389 ± 0.012 kPa
1077 K	0.0324 ± 0.0098 kPa
1078 K	0.0457 ± 0.014 kPa
